Data taken from US6358928B1, “Peptidyl sulfonyl imidazolides as selective inhibitors of serine proteases” (Enzyme Systems Products, priority 1999, dated 2002).

Key:
human leukocyte elastase = biological target: T1, human leukocyte elastase (Homo sapiens, UniProt P08246); experiment: Inhibition of human leukocyte elastase (kobs/[I], spectrophotometric, MeOSuc-Ala-Ala-Pro-Val-AMC substrate); format: biochemical
T1 sequence (P08246 30-267): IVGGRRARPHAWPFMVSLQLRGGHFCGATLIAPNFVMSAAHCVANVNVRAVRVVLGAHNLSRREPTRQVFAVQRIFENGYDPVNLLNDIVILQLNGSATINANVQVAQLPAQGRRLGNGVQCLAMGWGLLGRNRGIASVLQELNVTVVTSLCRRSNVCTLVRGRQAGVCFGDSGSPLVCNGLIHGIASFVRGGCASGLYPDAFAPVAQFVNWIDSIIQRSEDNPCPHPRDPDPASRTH
Experimental: (§1) Z-Ala-Ala-AlaCH2SO2-Im, prepared as in Example 1, was assayed for serine protease inhibition activity against human leukocyte elastase. Various concentrations of inhibitor were rapidly mixed with fixed aliquots of enzyme and allowed to react for at least two half-lives. Aliquots of the treated enzyme were then assayed spectrophotometrically for protease activity using MeOSuc-Ala-Ala-Pro-Val-AMC as the substrate to determine kobs/[I]. […] 359-361 (1975), incorporated herein by reference.

human cathepsin G = biological target: T2, human cathepsin G (Homo sapiens, UniProt P08311); experiment: Inhibition of human cathepsin G, assayed as in Example 2; format: biochemical; conditions: present-tense example
T2 sequence (P08311 21-244): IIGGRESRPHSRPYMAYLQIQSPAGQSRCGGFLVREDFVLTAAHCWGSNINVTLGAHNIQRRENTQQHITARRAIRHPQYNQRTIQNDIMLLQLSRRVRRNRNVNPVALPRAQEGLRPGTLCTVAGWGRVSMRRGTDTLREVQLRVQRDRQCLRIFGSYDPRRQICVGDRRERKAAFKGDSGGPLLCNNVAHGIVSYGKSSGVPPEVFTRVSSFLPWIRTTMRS
Experimental: as §1
MeOSuc-Ala-Ala-Pro-ValCH2SO2-Im is prepared as in example 3 and assayed as in Example 2 for inhibition of human leukocyte elastase and human cathepsin G with the corresponding peptidyl chloromethane, MeOSuc-Gly-Leu-PheCH2SO2-Im, and Z-Ala-Ala-AlaCH2SO2-Im as comparator inhibitors.
Z-Gly-Leu-PheCH2SO2-Im is prepared as in Example 5, and is assayed as in Example 2 for inhibition of human cathepsin G and human leukocyte elastase with the corresponding peptidyl chloromethane, MeOSuc-Ala-Ala-Pro-ValCH2SO2-Im, and Z-Ala-Ala-AlaCH2SO2-Im as comparator inhibitors.

[1] = enzyme concentration 200 μM, substrate 100 μM, inhibitor 200 μM

For C[C@H](NC(=O)OCc1ccccc1)C(=O)N[C@@H](C)C(=O)N[C@@H](C)CS(=O)(=O)n1ccnc1 [Z-Ala-Ala-AlaCH2SO2-Im], the “times more potent than the corresponding peptidyl chloromethane inhibitor” value (human leukocyte elastase; comparator value as reported in Tuhy and Powers, FEBS Letters 50, 359-361 (1975)) was 45 times, the kobs (human leukocyte elastase; [1]) was 0.0025 s⁻¹ and the “kobs/[I]” value (human leukocyte elastase; [1]) was 12.7 M⁻¹ s⁻¹.
For CC(C)C[C@H](NC(=O)CNC(=O)OCc1ccccc1)C(=O)N[C@@H](Cc1ccccc1)CS(=O)(=O)n1ccnc1 [Z-Gly-Leu-PheCH2SO2-Im], the “kobs/[I] against human cathepsin G compared with comparator inhibitors” value (human cathepsin G; comparators: corresponding peptidyl chloromethane, MeOSuc-Ala-Ala-Pro-ValCH2SO2-Im, Z-Ala-Ala-AlaCH2SO2-Im) was “significantly higher” and the “kobs/[I] against human leukocyte elastase compared with MeOSuc-Ala-Ala-Pro-ValCH2SO2-Im” value (human leukocyte elastase; present-tense example) was “significantly lower”.
With MeOSuc-Ala-Ala-Pro-ValCH2SO2-Im the “kobs/[I] against human cathepsin G compared with MeOSuc-Gly-Leu-PheCH2SO2-Im” value (human cathepsin G) was “significantly lower” and the “kobs/[I] against human leukocyte elastase compared with comparator inhibitors” value (human leukocyte elastase; comparators: corresponding peptidyl chloromethane, MeOSuc-Gly-Leu-PheCH2SO2-Im, Z-Ala-Ala-AlaCH2SO2-Im, present-tense example) was “significantly higher”.
